Experimental data: patent US20240150303A1, “DIAMINOTRIAZINE COMPOUNDS” (BASF SE, priority 2021, published 2024)

Legend:
Test in all cases: greenhouse pre-emergence herbicidal test
Assay type in all cases: in vivo
[1] = system: Alopercurus myosuroides
From the text: (§1) The culture containers used were plastic flowerpots containing loamy sand with approximately 3.0% of humus as the substrate. The seeds of the test plants were sown separately for each species.
(§2) For the pre-emergence treatment, the active ingredients, which had been suspended or emulsified in water, were applied directly after sowing by means of finely distributing nozzles.
(§3) The containers were irrigated gently to promote germination and growth and subsequently covered with transparent plastic hoods until the plants had rooted. This cover caused uniform germination of the test plants, unless this had been impaired by the active ingredients.
(§4) Depending on the species, the plants were kept at 10-25° C. or 20-35° C., respectively.
(§5) The test period extended over 2 to 4 weeks. During this time, the plants were tended, and their response to the individual treatments was evaluated.
(§6) Evaluation was carried out using a scale from 0 to 100. 100 means no emergence of the plants, or complete destruction of at least the aerial moieties, and 0 means no damage, or normal course of growth. A moderate herbicidal activity is given at values of at least 60, a good herbicidal activity is given at values of at least 70, and a very good herbicidal activity is given at values of at least 85.
(§7) The plants used in the greenhouse experiments were of the following species: […]

[2] = system: Amaranthus retroflexus
From the text: (§8) The seeds of the test plants were sown separately for each species. For the pre-emergence treatment, the active ingredients, which had been suspended or emulsified in water, were applied directly after sowing by means of finely distributing nozzles. The containers were irrigated gently to promote germination and growth and subsequently covered with transparent plastic hoods until the plants had rooted. This cover caused uniform germination of the test plants, unless this had been impaired by the active ingredients. […] The test period extended over 2 to 4 weeks. During this time, the plants were tended, and their response to the individual treatments was evaluated. Evaluation was carried out using a scale from 0 to 100. 100 means no emergence of the plants, or complete destruction of at least the aerial moieties, and 0 means no damage, or normal course of growth. A moderate herbicidal activity is given at values of at least 60, a good herbicidal activity is given at values of at least 70, and a very good herbicidal activity is given at values of at least 85. The plants used in the greenhouse experiments were of the following species: [table]

[3] = system: Setaria faberi
From the text: as §8

[4] = system: Abutilon theophrasti
From the text: as §1, §2, §3, §4, §5, §6, §7

[5] = system: Echinocloa crus-galli
From the text: as §8

Compound	herbicidal activity ([2]; 62 g/ha) [%]	herbicidal activity ([3]; 62 g/ha) [%]	herbicidal activity ([5]; 62.5 g/ha) [%]	herbicidal activity ([3]; 62.5 g/ha) [%]	herbicidal activity ([4]; 62 g/ha) [%]	herbicidal activity ([5]; 62 g/ha) [%]	herbicidal activity ([2]; 62.5 g/ha) [%]	also measured
COc1c(Br)cc(Cl)c(C)c1Nc1nc(N)nc(C(C)(F)CCl)n1 (racemic) [Example 98]	100	100	–	–	–	–	–	herbicidal activity ([1]; 62 g/ha): 100%
COc1c(F)cc(F)c(Cl)c1Nc1nc(N)nc(C(C)(C)F)n1 [Example 9]	–	–	–	–	–	–	–	herbicidal activity ([4]; 32 g/ha): 100%; herbicidal activity ([4]; 250 g/ha): 90%; herbicidal activity ([2]; 32 g/ha): 100%; herbicidal activity ([2]; 250 g/ha): 100%; herbicidal activity ([5]; 32 g/ha): 100%; herbicidal activity ([3]; 250 g/ha): 95%
COc1c(Cl)cc(Br)c(Cl)c1Nc1nc(N)nc(C(C)(C)F)n1 [Example 12]	–	–	–	–	–	–	–	herbicidal activity ([1]; 250 g/ha): 100%; herbicidal activity ([4]; 250 g/ha): 100%; herbicidal activity ([2]; 250 g/ha): 100%; herbicidal activity ([5]; 250 g/ha): 100%; herbicidal activity ([3]; 250 g/ha): 100%
COc1c(F)cc(F)c(Br)c1Nc1nc(N)nc(C(C)(C)F)n1 [Example 13]	–	–	100	100	–	–	–	herbicidal activity ([1]; 62.5 g/ha): 100%; herbicidal activity ([4]; 31 g/ha): 100%; herbicidal activity ([2]; 31 g/ha): 100%; herbicidal activity ([5]; 31 g/ha): 100%
COc1c(C)ccc(C)c1Nc1nc(N)nc(C(C)(C)F)n1 [Example 14]	100	–	–	–	100	100	–	herbicidal activity ([1]; 125 g/ha): 98%; herbicidal activity ([5]; 125 g/ha): 98%; herbicidal activity ([3]; 125 g/ha): 100%
COc1c(F)cc(F)c(C(F)(F)F)c1Nc1nc(N)nc(C(C)(C)F)n1 [Example 19]	–	100	100	–	–	100	100	herbicidal activity ([1]; 62 g/ha): 100%; herbicidal activity ([4]; 62.5 g/ha): 100%
COc1c(Cl)ccc(Cl)c1Nc1nc(N)nc(C(C)(C)F)n1 [Example 20]	–	100	100	–	–	100	100	herbicidal activity ([1]; 62 g/ha): 100%; herbicidal activity ([4]; 62.5 g/ha): 100%
CC#CCOc1c(Br)cc(F)c(C)c1Nc1nc(N)nc(C(C)(C)F)n1 [Example 21]	–	100	100	100	–	100	95	herbicidal activity ([1]; 62 g/ha): 100%
CC#CCOc1c(Br)cc(F)c(Cl)c1Nc1nc(N)nc(C(C)(C)F)n1 [Example 32]	–	100	100	–	100	–	100	herbicidal activity ([1]; 62 g/ha): 100%; herbicidal activity ([4]; 62.5 g/ha): 100%
COc1c(Cl)cc(Cl)c(C)c1Nc1nc(N)nc(C(F)(F)F)n1 [Example 33]	–	–	98	–	–	–	100	herbicidal activity ([1]; 125 g/ha): 100%; herbicidal activity ([4]; 62.5 g/ha): 100%; herbicidal activity ([5]; 125 g/ha): 100%; herbicidal activity ([3]; 125 g/ha): 100%
COc1c(Br)cc(Br)c(C)c1Nc1nc(N)nc(C(C)(C)F)n1 [Example 38]	–	–	100	100	–	–	100	herbicidal activity ([4]; 250 g/ha): 100%; herbicidal activity ([2]; 250 g/ha): 100%; herbicidal activity ([3]; 250 g/ha): 100%
COc1c(Br)cc(Cl)c(C)c1Nc1nc(N)nc(C(C)(C)F)n1 [Example 39]	100	100	100	100	100	–	100	–
COc1c(Br)cc(F)c(Cl)c1Nc1nc(N)nc(C2(F)CCCC2)n1 [Example 40]	–	100	100	100	100	100	100	–
COc1c(Br)cc(F)c(Cl)c1Nc1nc(N)nc(C(C)F)n1 (stereo not drawn) [Example 41]	–	100	100	100	100	100	100	–
C#CCOc1c(F)ccc(Cl)c1Nc1nc(N)nc(C(C)(C)F)n1 [Example 50]	100	–	–	–	100	100	–	herbicidal activity ([4]; 31 g/ha): 80%; herbicidal activity ([2]; 31 g/ha): 100%; herbicidal activity ([3]; 31 g/ha): 100%
CC#CCOc1c(F)ccc(Cl)c1Nc1nc(N)nc(C(C)(C)F)n1 [Example 51]	100	100	–	–	100	100	–	–

Compound	herbicidal activity ([2]; 62 g/ha) [%]	herbicidal activity ([3]; 62 g/ha) [%]	herbicidal activity ([5]; 62.5 g/ha) [%]	herbicidal activity ([3]; 62.5 g/ha) [%]	herbicidal activity ([4]; 62 g/ha) [%]	herbicidal activity ([5]; 62 g/ha) [%]	herbicidal activity ([2]; 62.5 g/ha) [%]	also measured
COc1c(F)ccc(Cl)c1Nc1nc(N)nc(C2(F)CCCC2)n1 [Example 53]	100	–	98	100	100	100	–	herbicidal activity ([1]; 62.5 g/ha): 90%
COc1c(F)cc(C)c(C)c1Nc1nc(N)nc(C(C)(C)F)n1 [Example 54]	100	–	100	–	100	100	–	herbicidal activity ([1]; 62.5 g/ha): 100%; herbicidal activity ([4]; 62.5 g/ha): 100%
COc1c(F)cc(C)c(Cl)c1Nc1nc(N)nc(C(C)(C)F)n1 [Example 55]	–	100	100	–	100	100	100	herbicidal activity ([4]; 62.5 g/ha): 100%
CC#CCOc1c(F)cc(C)c(Cl)c1Nc1nc(N)nc(C(C)(C)F)n1 [Example 57]	100	100	–	–	–	100	–	herbicidal activity ([4]; 31 g/ha): 98%; herbicidal activity ([5]; 31 g/ha): 100%; herbicidal activity ([3]; 31 g/ha): 100%
COc1c(F)cc(Br)c(Cl)c1Nc1nc(N)nc(C(C)(C)F)n1 [Example 58]	100	100	100	100	–	100	–	herbicidal activity ([4]; 62.5 g/ha): 100%
CC#CCOc1c(F)cc(Br)c(Cl)c1Nc1nc(N)nc(C(C)(C)F)n1 [Example 59]	100	100	95	100	–	–	–	herbicidal activity ([1]; 62 g/ha): 95%; herbicidal activity ([4]; 62.5 g/ha): 100%
COc1c(Cl)cc(Br)c(C)c1Nc1nc(N)nc(C2(F)CCCC2)n1 [Example 61]	–	85	–	–	–	70	–	herbicidal activity ([1]; 62 g/ha): 75%; herbicidal activity ([4]; 31 g/ha): 100%; herbicidal activity ([2]; 31 g/ha): 100%; herbicidal activity ([5]; 31 g/ha): 100%
COc1c(Br)ccc(C)c1Nc1nc(N)nc(C(C)(C)F)n1 [Example 62]	100	–	–	–	100	100	–	herbicidal activity ([2]; 31 g/ha): 100%; herbicidal activity ([5]; 31 g/ha): 100%; herbicidal activity ([3]; 31 g/ha): 100%
COc1c(Cl)cc(F)c(C)c1Nc1nc(N)nc(C(C)(F)CBr)n1 (stereo not drawn) [Example 66]	100	100	–	–	100	100	–	–
COc1c(Cl)cc(F)c(C)c1Nc1nc(N)nc(C(C)(F)F)n1 [Example 67]	100	100	–	–	100	100	–	–
COc1c(Cl)cc(F)c(C)c1Nc1nc(N)nc(C(C)(F)CCl)n1 (stereo not drawn) [Example 68]	100	100	–	–	100	100	–	–
COc1c(Cl)cc(F)c(C)c1Nc1nc(N)nc(C(C)F)n1 (stereo not drawn) [Example 69]	100	100	–	–	100	100	–	–
COc1c(Cl)cc(F)c(C)c1Nc1nc(N)nc(C(C)(C)F)n1 [Example 70]	100	100	–	–	100	100	–	–
COc1c(Cl)ccc(Cl)c1Nc1nc(N)nc(C(C)F)n1 (stereo not drawn) [Example 71]	100	100	–	–	100	100	–	–
COc1c(Cl)cc(Cl)c(C)c1Nc1nc(N)nc(C2(F)CC2)n1 [Example 93]	100	100	–	70	–	100	100	herbicidal activity ([4]; 62.5 g/ha): 80%
COc1c(Br)cc(Cl)c(C)c1Nc1nc(N)nc(C(C)(F)F)n1 [Example 97]	85	85	–	–	–	–	–	herbicidal activity ([1]; 62 g/ha): 70%
